# Target: ATP-dependent translocase ABCB1 (Homo sapiens, UniProt P08183)
# Assay: TP_TRANSPORTER: ATP hydrolysis in MDR1-expressing Sf9 cells
# Format: functional
# Chain of ATP-dependent translocase ABCB1 (P08183 whole entry): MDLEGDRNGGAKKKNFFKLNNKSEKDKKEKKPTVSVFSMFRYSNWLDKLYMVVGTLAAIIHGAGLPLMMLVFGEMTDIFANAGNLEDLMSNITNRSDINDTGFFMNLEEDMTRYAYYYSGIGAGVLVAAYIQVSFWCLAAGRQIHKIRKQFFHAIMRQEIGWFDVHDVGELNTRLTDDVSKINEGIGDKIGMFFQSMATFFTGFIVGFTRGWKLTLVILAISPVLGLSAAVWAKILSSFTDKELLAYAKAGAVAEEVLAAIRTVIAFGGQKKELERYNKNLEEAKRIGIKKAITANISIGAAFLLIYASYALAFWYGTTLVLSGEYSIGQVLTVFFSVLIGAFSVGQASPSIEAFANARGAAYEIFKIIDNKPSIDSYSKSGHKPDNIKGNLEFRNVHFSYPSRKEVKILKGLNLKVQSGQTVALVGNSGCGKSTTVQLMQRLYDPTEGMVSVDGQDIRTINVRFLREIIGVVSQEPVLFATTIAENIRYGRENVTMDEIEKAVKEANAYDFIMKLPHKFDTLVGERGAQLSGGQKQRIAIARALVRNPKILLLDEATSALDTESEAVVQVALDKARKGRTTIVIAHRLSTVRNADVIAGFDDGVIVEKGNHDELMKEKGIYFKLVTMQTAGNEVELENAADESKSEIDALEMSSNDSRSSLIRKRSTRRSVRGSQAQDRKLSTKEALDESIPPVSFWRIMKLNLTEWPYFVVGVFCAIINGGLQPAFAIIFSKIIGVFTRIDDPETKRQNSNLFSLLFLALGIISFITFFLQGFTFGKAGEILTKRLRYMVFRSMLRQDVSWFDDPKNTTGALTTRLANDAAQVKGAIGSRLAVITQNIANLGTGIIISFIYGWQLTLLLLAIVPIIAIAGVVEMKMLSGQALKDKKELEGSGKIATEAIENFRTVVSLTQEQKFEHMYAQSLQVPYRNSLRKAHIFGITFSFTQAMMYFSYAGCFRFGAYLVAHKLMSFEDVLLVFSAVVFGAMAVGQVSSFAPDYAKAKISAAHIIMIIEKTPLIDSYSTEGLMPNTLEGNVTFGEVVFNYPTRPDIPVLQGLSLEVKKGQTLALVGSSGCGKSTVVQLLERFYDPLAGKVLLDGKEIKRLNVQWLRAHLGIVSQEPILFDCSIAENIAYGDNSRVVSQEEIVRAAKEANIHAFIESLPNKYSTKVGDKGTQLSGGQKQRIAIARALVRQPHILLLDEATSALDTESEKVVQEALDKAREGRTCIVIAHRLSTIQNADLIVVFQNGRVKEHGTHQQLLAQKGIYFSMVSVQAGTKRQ
row,Activity,Compound
1,substrate [+],C[C@]12CC[C@@H]3c4ccc(O)cc4CC[C@H]3[C@@H]1CC[C@@H]2O [ESTRADIOL]
2,substrate [+],COc1ccc2c(c1)CCC(c1ccccc1)=C2c1ccc(OCCN2CCCC2)cc1 [NAFOXIDINE]
3,substrate [+],CCN(CC)CCOc1ccc(C(=C(Cl)c2ccccc2)c2ccccc2)cc1 [CLOMIPHENE]
4,substrate [+],CC/C(=C(\c1ccccc1)c1ccc(OCCN)cc1)c1ccccc1 [DESMETHYL TAMOXIFEN]

# Second part, the compound before the results:
row,Compound,Activity
1,CC/C(=C(/c1ccc(OCCN(C)C)cc1)c1cccc(O)c1)c1ccccc1 [DROLOXIFENE],substrate [+]
2,CCC(=C(c1ccc(O)cc1)c1ccc(OCCN(C)C)cc1)c1ccccc1,substrate [+]
3,CC/C(=C(/CC)c1ccc(O)cc1)c1ccc(O)cc1 [DIETHYLSTILBESTROL],substrate [+]
4,CN(C)CCOc1ccc(/C(=C(/CCCl)c2ccccc2)c2ccccc2)cc1 [TOREMIFENE],substrate [+]
5,C[C@]12C[C@H](O)[C@H]3[C@@H](CCC4=CC(=O)CC[C@@]43C)[C@@H]1CC[C@@H]2C(=O)CO [CORTICOSTERONE],substrate [+]

# Reference: ChEMBL document CHEMBL2074227, “Antiestrogens and steroid hormones: substrates of the human P-glycoprotein” (Biochem Pharmacol, 1994)
